From ChEMBL document CHEMBL1158178, “Study on the binding interaction between carnitine optical isomer and bovine serum albumin” (Eur J Med Chem, 2008)

Columns and labels:
Albumin [1] = molecular target: T1, Albumin (Bos taurus, UniProt P02769); test: Binding affinity to bovine serum albumin by fluorescence spectroscopy; assay type: ADME; details: cattle, isolated protein
Albumin [2] = molecular target: T1, Albumin; test: Binding affinity to bovine serum albumin by fluorescence spectroscopy in presence of Fe3+; assay type: ADME; details: cattle, isolated protein

T1 sequence (P02769 whole entry): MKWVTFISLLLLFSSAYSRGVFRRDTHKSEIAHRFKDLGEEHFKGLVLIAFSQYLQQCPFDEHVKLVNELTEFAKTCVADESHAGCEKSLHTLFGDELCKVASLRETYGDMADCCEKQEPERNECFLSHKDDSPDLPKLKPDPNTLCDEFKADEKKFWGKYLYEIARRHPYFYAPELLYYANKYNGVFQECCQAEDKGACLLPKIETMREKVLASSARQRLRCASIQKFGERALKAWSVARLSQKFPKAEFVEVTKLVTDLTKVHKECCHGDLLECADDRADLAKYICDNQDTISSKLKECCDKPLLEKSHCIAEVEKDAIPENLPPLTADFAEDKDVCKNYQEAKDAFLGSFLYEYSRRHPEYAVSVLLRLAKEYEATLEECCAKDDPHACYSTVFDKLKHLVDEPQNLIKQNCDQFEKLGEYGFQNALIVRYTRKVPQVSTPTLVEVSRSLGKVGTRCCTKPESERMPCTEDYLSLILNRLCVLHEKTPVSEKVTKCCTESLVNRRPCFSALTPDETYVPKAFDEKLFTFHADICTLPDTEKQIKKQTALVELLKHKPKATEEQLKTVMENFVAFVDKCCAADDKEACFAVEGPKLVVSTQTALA

Structure (SMILES): C[N+](C)(C)C[C@@H](O)CC(=O)[O-] [D-CARNITINE]
- K (Albumin [1]): 2.15 ×10⁴ L/mol
- K (Albumin [2]): 3.18 ×10⁴ L/mol

Structure (SMILES): C[N+](C)(C)C[C@H](O)CC(=O)[O-] [LEVOCARNITINE]
- K (Albumin [1]): 2.27 ×10⁴ L/mol
- K (Albumin [2]): 2.97 ×10⁴ L/mol
